Reference: patent US8536132B2, “Lymphatic zip codes in tumors and pre-malignant lesions” (Sanford-Burnham Medical Research Institute, priority 2006, dated 2013)
“Also recorded” adds a separate entry of the source. Marks after values point to notes of the source that are not given here.

How the values were obtained:
normal tissues = test: In vivo phage homing to normal and control tissues; design: species or system mouse; details: for phage in other tissues versus nonrecombinant control phage: lymph nodes, kidneys, lungs, skin, gut
Method: (§1) In vivo homing specificity of phage was tested as described (Hoffman, 2004). Briefly, mice bearing tumors were anesthetized and intravenously injected with 5×10^9 pfu of phage. After 7 min, the mice were perfused through the heart with PBS containing 0.5% BSA. The tumor and control organs were dissected from each mouse and the phage were rescued and tittered. For histology analysis, the mice were perfused with 4% PFA 30 min after the injection of phage. Tissues were embedded in Tissue-Tek O.C.T. and 5 μm sections were prepared for phage immunostaining.

TRAMP PIN lesions = test: In vivo phage homing to TRAMP pre-malignant (PIN) lesions; design: species or system mouse; details: for phage homing to TRAMP pre-malignant lesions (in words): i.v. injected phage
Method: (§2) The following cell lines were maintained in DMEM supplemented with 10% FCS: C8161 human melanoma, MDA-MB-435 human breast cancer, KRIB human osteosarcoma, and human prostate cancer cells PPC1, DU145. LNCaP human prostate cancer cell line was grown in RPMI 1640 medium with 10 mM HEPES, 1 mM sodium pyruvate and 1.5 g/L sodium bicarbonate supplemented with 10% FCS. M12 human prostate cancer cell line was cultured in RPMI 1640 with 5 μg/ml insulin-transferrin-sodium selenite (ITS), 2.5 μg/ml fungizone, 50 μg/ml gentamycin, 0.2 μM dexamethasone, 10 ng/ml epidermal growth factor (EGF), and 5% FCS (Bae et al., 1998). To produce tumors, nude BALB/c and C56BL/6 mice were subcutaneously (C8161, KRIB, and PPC1) or orthotopically ([…], PPC1, DU145, M12, and LNCaP) injected with 1×10^6 tumor cells. Transgenic mouse tumor models included TRAMP prostate cancer, MMTV-PyMT breast cancer, and K14-HPV16 cervical cancer. To initiate cervical carcinogenesis, female K14-HPV16 mice (Arbeit et al., 1994) were treated with 17β-estradiol (E2; (Arbeit et al., 1996; Giraudo et al., 2004). Briefly, one-month-old virgin female transgenic (heterozygous K14-HPV16, 1203#1) and nontransgenic (FVB/n) mice were anesthetized with isoflurane, and continuous release pellets that deliver E2 at doses of 0.05 mg over 60 days (Innovative Research of America, Sarasota, Fla., USA) were implanted subcutaneously in the dorsal back skin. Subsequent pellets were implanted at 3 and 5 months of age for a total of 6 months of hormone treatment. K14-HPV16 mice were maintained in the FVB/n background (FVB/n; The Jackson Laboratory). The mice were maintained in accordance with the University of California, San Francisco (UCSF) institutional guidelines governing the care of laboratory mice. The animal experimentation was approved by Animal Research Committees at UCSF or The Burnham Institute.
as §1

[1] = tested on: M12 orthotopic xenografts; test: In vivo phage homing to M12 orthotopic xenografts; design: species or system mouse; details: for phage homing to M12 xenografts (in words): i.v. injected phage
Method: as §2, §1

[2] = tested on: MDA-MB-435 orthotopic xenografts; test: In vivo phage homing to MDA-MB-435 orthotopic xenografts; design: species or system mouse
Method: as §2, §1

[3] = tested on: human prostate tumor sections; test: Phage overlay of tissue sections from human prostate cancer; details: two primary human prostate cancers
Method: The frozen sections of human prostate tumor specimens were obtained from Dr. Daniel Mercola (Sidney Kimmel Cancer Center, La Jolla, Calif.). The sections (5 μm) were preincubated with blocking buffer (5% normal goat serum and 0.5% BSA in 1×PBS) for 1 hr at room temperature, washed three times with diluted blocking buffer (1:10), and phage (3×10^9 pfu) were incubated on the section for 4 hrs. After 3 washes, rabbit anti-phage antibody (10 μg/ml) was added and the phage incubated for 2 hrs. The slides were washed and incubated with AlexaFluor-488 goat anti-rabbit IgG for 1 hr. After further washes, the slides were mounted with Vectashield (VECTOR, Burlingame, Calif.).

TRAMP prostate tumors [4] = details: for fluorescent peptide in TRAMP prostate tumors (in words): fluorescein-conjugated peptide i.v.
Method: (§3) Custom immunization to produce a rabbit antiserum against mouse Prox-1 was performed by Proteintech Inc. New Zealand White rabbits were immunized with a fusion protein of GST-C-terminal fragment of Prox-1 protein. The antibody was affinity purified on the fusion protein and absorbed with GST. […] Antibodies against the lymphatic markers anti-LYVE-1 (Laakkonen et al., 2002) and anti-podoplanin (kindly provided by T. Petrova and K. Alitalo), rat monoclonal anti-mouse CD31 (BD Pharmingen), rat anti-mouse MECA-32 (Pharmingen), rabbit polyclonal anti-T7 phage, and rat anti-mouse VEGFR3 were used for immunohistochemical staining of frozen tissue sections as described (Joyce et al., 2003; Laakkonen et al., 2002). The corresponding secondary antibodies were added and incubated for 1 hr at room temperature: AlexaFluor-488 goat anti-rat or rabbit IgG (1:1000; Molecular Probes, Eugene, Oreg.), AlexaFluor-594 goat anti-rat or rabbit IgG (1:1000, Molecular Probes), AlexaFluor-594 donkey anti-mouse or goat IgG (1:1000, Molecular Probes), and AlexaFluor-488 donkey anti-mouse or goat IgG (1:1000; Molecular Probes), respectively. The slides were washed three times with PBS and mounted in Vectashield Mounting Medium with DAPI (Vector Laboratories, Burlingame, Calif.). Blood vessels were also visualized by intravenously injecting Lycopersicon esculentum (tomato) lectin conjugated to fluorescein (100 μg of lectin in 200 μl of PBS; Vector Laboratories). […] The injected peptides were allowed to circulate 30 min to 2 hrs, and the mice were perfused with 4% paraformaldehyde through the left ventricle of heart. Tissues were dissected and frozen in OCT embedding medium (Tissue-Tek, Elkhart, Ind.). The frozen sections were prepared for immunohistological analysis.

[5] = tested on: pre-malignant TRAMP lesions
Method: as §3

MMTV-PyMT breast tumors = test: In vivo phage homing to MMTV-PyMT breast tumors; design: species or system mouse; details: for phage homing to MMTV-PyMT breast tumors (in words): i.v. injected phage; for Fold over control phage / Specific Homing: phage homing in vivo, MMTV-PyMT breast tumors
Method: as §2, §1

C8161 xenografts = test: In vivo phage homing to C8161 xenograft tumors; design: species or system mouse
Method: as §2, §1

TRAMP prostate tumors [6] = test: In vivo phage homing to TRAMP prostate tumors; design: species or system mouse; details: for phage homing to TRAMP prostate tumors (in words): i.v. injected phage; for Fold over control phage / Specific Homing: phage homing in vivo, TRAMP prostate tumors
Method: as §2, §1

[7] = tested on: K14-HPV16/E2 cervical tumors; test: In vivo phage homing to K14-HPV16/E2 cervical tumors; design: species or system mouse; details: for phage homing to K14-HPV16/E2 cervical tumors (in words): i.v. injected phage; for Fold over control phage / Specific Homing: phage homing in vivo, K14-HPV16/E2 cervical cancer / cervical tumors
Method: as §2, §1

[8] = phage homing in vivo, M12 orthotopic xenografts
[9] = phage homing in vivo, MDA-MB-435 orthotopic xenografts
[10] = phage and fluorescein-labeled peptide, TRAMP tumors
[11] = phage homing in vivo, C8161 (s.c.) xenografts
[12] = phage homing in vivo, TRAMP PIN lesions
[13] = phage and fluorescein-labeled peptide, TRAMP pre-malignant lesions

CREAGRKAC [homing peptide for prostate tumor lymphatics]
phage in other tissues versus nonrecombinant control phage (normal tissues): Neither phage was found in other tissues | phage homing to normal prostate (normal tissues; tumor-free littermates of TRAMP mice): not to pre-malignant lesions or normal prostate | phage homing to TRAMP pre-malignant lesions (in words) (TRAMP PIN lesions): not to pre-malignant lesions or normal prostate | phage homing to M12 xenografts (in words) ([1]; listed as REA phage): homed | phage homing to M12 xenografts (in words) ([1]; listed as REA-phage): Significant phage homing | Fold over control phage [1, 8]: 24 fold | Specific Homing [1, 8]: Yes | phage homing to MDA-MB-435 tumors (in words) ([2]; i.v. injected phage): negative for REA binding | Fold over control phage [2, 9]: 4 fold | Specific Homing [2, 9]: No | phage binding to human prostate tumor sections (in words) [3]: recognizes the lymphatics of human prostate tumors | fluorescent peptide in TRAMP prostate tumors (in words) (TRAMP prostate tumors [4]): accumulated in prostate tumors | overlap with podoplanin-positive lymphatic vessels (TRAMP prostate tumors [4]; fluorescein-conjugated peptide, prostate tumors): 90% | co-localization with lymphatic markers podoplanin, VEGFR3, LYVE-1, Prox-1 (TRAMP prostate tumors [4]; [10]): substantial co-localization | localization versus blood vessel markers CD31 and MECA-32 (TRAMP prostate tumors [4]; [10]): entirely distinct | fluorescent peptide in TRAMP pre-malignant lesions (in words) ([5]; fluorescein-conjugated peptide i.v.): negative | phage homing to MMTV-PyMT breast tumors (in words) (MMTV-PyMT breast tumors): negative for REA binding | Fold over control phage (MMTV-PyMT breast tumors): 8^‡ fold | Specific Homing (MMTV-PyMT breast tumors): Yes | phage homing to C8161 tumors (in words) (C8161 xenografts; i.v. injected phage, C8161 xenograft mice): negative for REA binding | Fold over control phage (C8161 xenografts; [11]): 5 fold | Specific Homing (C8161 xenografts; [11]): No | enrichment in TRAMP tumors relative to nonrecombinant phage (TRAMP prostate tumors [6]; i.v. injected phage clone): 50 fold | phage homing to TRAMP prostate tumors (in words) (TRAMP prostate tumors [6]; listed as REA phage): homes to tumors | phage homing to TRAMP prostate tumors (in words) (TRAMP prostate tumors [6]; listed as REA-phage): accumulate in TRAMP tumors; also recorded: Significant phage homing | Fold over control phage (TRAMP prostate tumors [6]): 46 fold | Specific Homing (TRAMP prostate tumors [6]): Yes | phage homing to K14-HPV16/E2 cervical tumors (in words) [7]: slightly positive | Fold over control phage [7]: 7^‡ fold | Specific Homing [7]: Yes

CAGRRSAYC [homing peptide for pre-malignant TRAMP prostate lesions]
phage in other tissues versus nonrecombinant control phage (normal tissues): Neither phage was found in other tissues | phage homing to TRAMP pre-malignant lesions (in words) (TRAMP PIN lesions; listed as AGR phage): selectively home to pre-malignant lesions; also recorded: homed significantly more; also recorded: homes only to pre-malignant lesions; also recorded: marked preference | enrichment to pre-malignant TRAMP lesions relative to nonrecombinant phage (TRAMP PIN lesions; phage clones tested in vivo individually): 24 fold | Fold over control phage (TRAMP PIN lesions; [12]): 18 fold | Specific Homing (TRAMP PIN lesions; [12]): Yes | phage binding to human prostate tumor sections (in words) [3]: did not bind | fluorescent peptide in TRAMP prostate tumors (in words) (TRAMP prostate tumors [4]): little or no peptide was seen | co-localization with lymphatic markers podoplanin, VEGFR3, LYVE-1, Prox-1 [5, 13]: substantial co-localization | localization versus blood vessel markers CD31 and MECA-32 [5, 13]: entirely distinct | phage homing to MMTV-PyMT breast tumors (in words) (MMTV-PyMT breast tumors): little homing of the phage | Fold over control phage (MMTV-PyMT breast tumors): 4 fold | Specific Homing (MMTV-PyMT breast tumors): No | Fold over control phage (TRAMP prostate tumors [6]): 4 fold | Specific Homing (TRAMP prostate tumors [6]): No | phage homing to K14-HPV16/E2 cervical tumors (in words) [7]: little homing of the phage | Fold over control phage [7]: 4 fold | Specific Homing [7]: No
